Source: US20070004680A1, “Compositions and methods for modulating gated ion channels” (PainCeptor Pharma Corporation, priority 2004, published 2007)

Columns and labels:
ASIC3 = biological target: T1, ASIC3 (Rattus norvegicus, UniProt O35240); experiment: whole cell patch clamp electrophysiology, ASIC3; format: cell-based
T1 construct: expressed in transfected cells
T1 sequence (O35240 1-533): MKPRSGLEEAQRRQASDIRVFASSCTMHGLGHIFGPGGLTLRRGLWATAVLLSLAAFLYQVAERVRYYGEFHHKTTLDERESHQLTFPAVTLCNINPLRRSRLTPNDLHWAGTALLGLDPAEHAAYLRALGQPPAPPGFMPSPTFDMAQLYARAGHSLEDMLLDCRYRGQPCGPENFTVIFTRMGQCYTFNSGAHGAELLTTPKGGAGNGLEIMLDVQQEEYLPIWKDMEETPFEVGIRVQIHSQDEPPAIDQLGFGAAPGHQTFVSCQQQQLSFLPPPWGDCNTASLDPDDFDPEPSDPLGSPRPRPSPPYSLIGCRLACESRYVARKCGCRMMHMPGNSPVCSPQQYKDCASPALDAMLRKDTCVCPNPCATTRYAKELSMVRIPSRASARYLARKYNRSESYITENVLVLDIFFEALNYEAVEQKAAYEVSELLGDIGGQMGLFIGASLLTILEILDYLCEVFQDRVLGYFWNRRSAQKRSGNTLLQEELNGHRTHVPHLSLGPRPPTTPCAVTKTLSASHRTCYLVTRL
Description: (§1) Another example of an in vitro assessment method consists of using mammalian heterologous expression systems, which are known to the skilled in the art, and include a variety of mammalian cell lines such as COS, HEK, e.g., HEK293and/or CHO, cells. Cell lines are transfected with gated ion channel(s) and used to perform electrophysiology as follows:
(§2) All experiments are performed at room temperature (20-25° C.) in voltage clamp using conventional whole cell patch clamp methods (Neher, E., et al. (1978) Pfluegers Arch 375:219-228).
(§3) The amplifier used is the EPC-9 (HEKA-electronics, Lambrect, Germany) run by a Macintosh G3 computer via an ITC-16 interface. Experimental conditions are set with the Pulse-software accompanying the amplifier. Data is low pass filtered and sampled directly to hard-disk at a rate of 3 times the cut-off frequency.
(§4) Pipettes are pulled from borosilicate glass using a horizontal electrode puller (Zeitz-lnstrumente, Augsburg, Germany). The pipette resistances are 2-3 MOhms in the salt solutions used in these experiments. The pipette electrode is a chloridized silver wire, and the reference is a silver chloride pellet electrode (In Vivo Metric, Healdsburg, USA) fixed to the experimental chamber. The electrodes are zeroed with the open pipette in the bath just prior to sealing.
Coverslips with the cells are transferred to a 15 μl experimental chamber mounted on the stage of an inverted microscope (IMT-2, Olympus) supplied with Nomarski optics. Cells are continuously superfused with extracellular saline at a rate of 2.5 ml/min. After giga-seal formation, the whole cell configuration is attained by suction. The cells are held at a holding voltage of −60 mV and at the start of each experiment the current is continuously measured for 45 s to ensure a stable baseline. Solutions of low pH (<7) are delivered to the chamber through a custom-made gravity-driven flowpipe, the tip of which is placed approximately 50 μm from the cell. Application is triggered when the tubing connected to the flowpipe is compressed by a valve controlled by the Pulse-software. Initially, low pH (in general, pH 6.5) is applied for 1 s every 45 s. The sample interval during application is 550 μs. After stable responses are obtained, the extracellular saline as well as the low-pH solution are switched to solutions containing the compound to be tested. The compound is present until responses of a repeatable amplitude are achieved. Current amplitudes are measured at the peak of the responses, and effect of the compounds is calculated as the amplitude at compound equilibrium divided by the amplitude of the current evoked by the pulse just before the compound was included. […]

ASIC1a = biological target: T2, ASIC1a (Rattus norvegicus, UniProt P55926); experiment: whole cell patch clamp electrophysiology, ASIC1a; format: cell-based; conditions: for Fraction of Control, ASIC1a - pH Dependency: 10 μM compound
T2 construct: expressed in transfected cells; host or cells: HEK cells according to b213
T2 sequence (P55926 1-526): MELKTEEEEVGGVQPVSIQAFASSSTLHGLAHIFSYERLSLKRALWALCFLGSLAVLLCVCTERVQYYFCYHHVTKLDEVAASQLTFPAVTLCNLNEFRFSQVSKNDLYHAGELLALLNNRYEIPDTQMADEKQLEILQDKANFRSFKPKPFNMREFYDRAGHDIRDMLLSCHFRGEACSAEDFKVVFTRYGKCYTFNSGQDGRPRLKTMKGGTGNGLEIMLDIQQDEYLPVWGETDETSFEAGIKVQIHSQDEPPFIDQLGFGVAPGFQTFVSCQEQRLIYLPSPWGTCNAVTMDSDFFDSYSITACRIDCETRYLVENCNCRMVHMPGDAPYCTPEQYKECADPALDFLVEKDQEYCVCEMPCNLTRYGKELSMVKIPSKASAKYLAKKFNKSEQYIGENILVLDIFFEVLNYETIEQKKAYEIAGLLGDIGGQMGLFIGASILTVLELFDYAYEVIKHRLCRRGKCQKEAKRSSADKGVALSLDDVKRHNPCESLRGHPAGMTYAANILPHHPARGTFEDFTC
Description: as §1, §2, §3, §4
Coverslips with the cells are transferred to a 15 μl experimental chamber mounted on the stage of an inverted microscope (IMT-2, Olympus) supplied with Nomarski optics. Cells are continuously superfused with extracellular saline at a rate of 2.5 ml/min. After giga-seal formation, the whole cell configuration is attained by suction. The cells are held at a holding voltage of −60 mV and at the start of each experiment the current is continuously measured for 45 s to ensure a stable baseline. Solutions of low pH (<7) are delivered to the chamber through a custom-made gravity-driven flowpipe, the tip of which is placed approximately 50 μm from the cell. Application is triggered when the tubing connected to the flowpipe is compressed by a valve controlled by the Pulse-software. Initially, low pH (in general, pH 6.5) is applied for 1 s every 45 s. The sample interval during application is 550 μs. After stable responses are obtained, the extracellular saline as well as the low-pH solution are switched to solutions containing the compound to be tested. The compound is present until responses of a repeatable amplitude are achieved. Current amplitudes are measured at the peak of the responses, and effect of the compounds is calculated as the amplitude at compound equilibrium divided by the amplitude of the current evoked by the pulse just before the compound was included.
The following salt solutions are used: extracellular solution (mM): NaCl (140), KCl (4), CaCl2 (2), MgCl2 (4), HEPES (10, pH 7.4); intracellular solution (mM): KCl (120), KOH (31), MgCl2 (1.785), […] (10), HEPES (10, pH 7.2). In general, compounds for testing are dissolved in 50% DMSO at 500 fold the highest concentration used.
The cDNA for ASIC1a and ASIC3 can be cloned from rat poly(A)^+ mRNA and put into expression vectors according to Hesselager et al. (J Biol Chem. 279(12):11006-15 2004). All constructs are expressed in CHO-K1 cells (ATCC no. CCL61). CHO-K1 cells are cultured at 37° C. in a humidified atmosphere of 5% CO2 and 95% air and passaged twice every week. The cells are maintained in DMEM (10 mM HEPES, 2 mM glutamax) supplemented with 10% fetal bovine serum and 2 mM L-proline (Life Technologies). […]

C=CC1CN2CCC1CC2[C@@H](OC(=O)CCC1CCCC1)c1ccnc2ccccc12 (some centres unmarked) [Compound A]
Fraction of Control, ASIC3 - pH Dependency (ASIC3; 10 μM compound, pH 5.0): greater than .75
IC50 (ASIC3; patch clamp, pH 6.5): 4 to 6 µM
Fraction of Control, ASIC1a - pH Dependency (ASIC1a; pH 5.0): greater than .85
Fraction of Control, ASIC1a - pH Dependency (ASIC1a; pH 6.0): greater than .85
IC50 (ASIC1a; patch clamp, HEK cells, pH 6.5): 17 to 23 µM
